Publication PMC9157788, “Design, Synthesis, and Apoptosis-Promoting Effect Evaluation of Rhopaladins’ Analog 4-Arylidene-5-Oxopyrrolidine Derivatives” (Frontiers in Chemistry, 2022)

Experiments:
[1] = system: 7402 cells; assay: Wound healing assay, 7402; type: cell-based, human; settings: 48 h
Protocol: (§1) The experimental procedures were performed according to conventional methods ([Kovaříková et al., 2014]). Hepatocarcinoma cells at the logarithmic growth stage were taken and inoculated into six-well plates with 2 × 10^4 cells/well. When the cell density is about 80%, the cell wound was scratched with pipette tips. Cells were then washed with PBS and added to the cell culture broth containing 1% serum with varying concentrations of RPDPRH (0 μM, 6.25, 12.5, and 25 μM) for 48 h. Pictures were taken at 0 and 48 h under a microscope (100×). Wound healing rate (%) = [(0 h scratch distance−48 h scratch distance)/0 h scratch distance] × 100%.

[2] = system: 7402 cells; assay: MTT cell viability assay, 7402; type: cell-based; settings: Homo sapiens, 48 h, read-out: Half inhibitory concentration (IC50), 7402
Protocol: (§2) HepG2 (human epidermoid hepatocellular carcinoma cell), 7402 (human epidermoid hepatocellular carcinoma cell), C-33A (human epidermoid cervical carcinoma cell), and HeLa (human epidermoid cervical adenocarcinoma cell) were incubated in Dulbecco’s modified Eagle’s medium (DMEM), which was purchased from Gibco (Grand Island, NY, United States). SiHa cells (human epidermoid cervical squamous cell carcinoma) were incubated in minimum essential medium (MEM, also from Gibco). CaSki (human epidermoid cervical carcinoma cell) and LO2 (human normal liver cell) were incubated in minimum essential medium (MEM, also from Gibco). All cells were maintained at 37°C in a humidified incubator with 5% carbon dioxide, and the media contained 10% fetal bovine serum (FBS, Corning, United States) and 1% penicillin–streptomycin antibiotic solution (Corning, United States). SiHa and CaSki were bought from the China Center for Type Culture Collection (CCTCC). The other five types of cancer cell lines were obtained from the Experiment Center of Medicine, Sinopharm Dongfeng Hospital, Hubei University of Medicine. The compounds were dissolved in dimethyl sulfoxide (DMSO, MP Biomedicals, United States), and cisplatin was purchased from Aladdin, Shanghai, China. The control (0 μM) group was treated with DMSO only in the same conditions, and the DMSO content in the medium was less than 0.1%.
(§3) Cell viability was measured by a 3-(4,5-dimethylthiazol-2-yl)-2,5-diphenyltetrazolium bromide (MTT, MultiSciences, China) assay. The specific experimental steps referred to our previous research ([Zhu et al., 2020]). For each cell line, cells were digested and seeded in 96-well plates at a density of 1 × 10^3 cells/well. […] Then, the formed formazan crystals were dissolved in DMSO, and the plates were estimated in a […] microplate reader (BioTek Inc., Bio-Tek MQX200) at a wavelength of 490 nm. Optical density (OD) values were obtained, and the inhibition rate and IC50 of each compound on different cells were calculated by GraphPad Prism 8.0.1 software. […]

[3] = system: HepG2 cells; assay: Wound healing assay, HepG2; type: cell-based, human; settings: 48 h
Protocol: as §1

[4] = system: HepG2 cells; assay: Annexin V-FITC/PI flow cytometry apoptosis assay, HepG2; type: cell-based, human; settings: 48 h; for total apoptosis rate: DMSO control 7.73 ± 2.18%
Protocol: The effect of RPDPRH on apoptosis was performed using the Annexin V-FITC/PI Apoptosis kit (MultiSciences, China), following the manufacturer’s protocol. The cells were digested, dispersed, and plated into six-well plates with 2 × 10^4 cells/well and treated with RPDPRH (0, 6.25, 12.5, and 25 μM) at various concentrations for 48 h. Upon completion of the treatment, cells were harvested, washed with cool phosphate buffered solution (PBS, Gibco, United States) (0.01 M, pH=7.4), and re-suspended in a 500 μl binding buffer. Annexin V-FITC (5 μl) and PI (10 μl) were added into the cell suspension, and then, the suspension was incubated at room temperature away from light for 5 min. Cells were analyzed by using a flow cytometer (Agilent NovoCyte, China) immediately, and the results of the apoptosis were analyzed by FlowJo software.

[5] = system: Bax; assay: Western blot, Bax expression in 7402 cells; type: cell-based, human; settings: 7402, 25 μM, 48 h, vs DMSO control
Protocol: The experimental steps of the Western blotting assay referred to Lin’s study ([Lin et al., 2020]). After treatment with different concentrations of RPDPRH (0, 6.25, 12.5, and 25 μM) for 48 h, hepatocarcinoma cells were lysed with an ice-cold RIPA protein lysis buffer (Beyotime, China). Total cell lysates were prepared with RIPA lysis buffer containing phosphatase inhibitors (Roche, China) and protease inhibitors (MedChemExpress, United States). Total cell lysates were centrifuged at 10,000 g for 10 min at 4°C to obtain the supernatant. The protein concentration was detected according to the BCA Protein Assay Kit (Beyotime, China). Then, 5× SDS loading buffer (Beyotime, China) was added to the supernatant and boiled at 100°C for 10 min. The obtained protein samples were stored at −80°C.
The protein samples (20 μg) were resolved on 4% concentration glue and 12% separating glue and prepared according to the SDS-PAGE Gel Quick Preparation Kit procedure (Beyotime, China). After electrophoresis at 80 V for 1.5–2 h, the proteins were wet-transferred onto a polyvinylidene difluoride membrane (PVDF, Millipore) at 300 mA for 1–1.5 h. […]

[6] = system: HeLa cells; assay: MTT cell viability assay, HeLa; type: cell-based; settings: Homo sapiens, 48 h, read-out: Half inhibitory concentration (IC50), HeLa
Protocol: as §2, §3

Compound: O=C1/C(=C/c2ccc(Cl)cc2)CC(/C=C/c2ccc(Cl)cc2)(C(=O)NC2CCCCC2)N1c1ccc(F)cc1 (centres unmarked) [RPDPRH, (2E, 4E)-4-(4-chlorobenzylidene)-2-(4-chlorostyryl)-N-cyclohexyl-1-(4-fluorophenyl)-5-oxopyrrolidine-2-carboxamide]
- wound healing rate ([1]; 7402, 25 μM, vs DMSO control, p < 0.01): reduced significantly
- wound healing rate ([1]; 7402, 6.25, 12.5 and 25 μM): significantly reduced
- IC50 [2]: 22.4 µM
- wound healing rate ([3]; HepG2, 25 μM, vs DMSO control, p < 0.001): significantly decreased
- wound healing rate ([3]; HepG2, 6.25, 12.5 and 25 μM): significantly reduced
- early apoptotic cell (LR) rate ([4]; HepG2, 6.25 μM): 5.53%
- late apoptotic (UR) rate ([4]; HepG2, 6.25 μM): 5.07%
- total apoptosis rate ([4]; HepG2, 6.25 μM): 10.6 ± 1.49%
- early apoptotic cell (LR) rate ([4]; HepG2, 12.5 μM): 14.90%
- late apoptotic (UR) rate ([4]; HepG2, 12.5 μM): 21.00%
- total apoptosis rate ([4]; HepG2, 12.5 μM): 35.90 ± 2.51%
- early apoptotic cell (LR) rate ([4]; HepG2, 25 μM): 19.80%
- late apoptotic (UR) rate ([4]; HepG2, 25 μM): 32.30%
- total apoptosis rate ([4]; HepG2, 25 μM): 52.10 ± 4.49%
- ratio of Bax/Bcl-2 [5]: increase obviously
- expression of pro-apoptotic protein Bax ([5]; p < 0.05): significant increase
- IC50 [6]: 15.2 µM
